Among the data in patent publication US10023592B2, “Bromodomain inhibitors” (Celgene Quanticel Research, Inc., priority 2013, dated 2018) are IC50 values, retold here.

One assay concerns the target BRD4(BD1) (Homo sapiens (Human), UniProt O60885). Put plainly: In vitro enzyme inhibition assay (BRD4 AlphaScreen). In kind it is binding. A digest of the protocol: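 His-tagged BRD4 tested by AlphaScreen for binding of biotinylated H4K5/8/12/16-tetraacetyl peptide. After 20 min at room temperature, streptavidin donor and nickel chelate acceptor beads added (5 μg/mL final each). IC50 determined.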
A general note: Bead proximity is the source of the signal in Alpha formats.

Assay [1] has as its system Raji, human Burkitts lymphoma cells. Put plainly: Cell-MTS proliferation assay, Raji. In kind it is cell-based. The following applies: Homo sapiens, 168 hr. The gist of the method:
(§1)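 Seeded for ~90% confluence at 7 days (Raji 15,000, HL-60 5,000, NCI-H460 3,000 cells/well); compound added 24 h post-plating as 11-point dilution, 100 μM to 2.0 nM final.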
On the technique in general: Tetrazolium assays rely on reduction of a dye to a coloured formazan, in cell work by metabolically active cells.

The test system of assay [2] is HL-60, human proleukemia cells. Put plainly: Cell-MTS proliferation assay, HL-60. In kind it is cell-based. The following applies: Homo sapiens, 168 hr. The gist of the method:
as §1

Assay [3] deals with NCI-H460, human non-small cell lung cancer cells. Put plainly: Cell-MTS proliferation assay, NCI-H460. In kind it is cell-based. Conditions: Homo sapiens, 168 hr. A digest of the protocol: as §1
[4] abbreviates: in vitro enzyme inhibition assay.
Setting [5] is: NCI-H460, Cell-MTS proliferation.
[6] abbreviates: Cell-MTS proliferation, Raji cells.
The mark [7] stands for this setting: Cell-MTS proliferation, HL-60 cells.
[8] abbreviates: Cell-MTS proliferation, NCI-H460 cells.
The mark [9] stands for this setting: Raji, Cell-MTS, class symbols A/B/C.
[10] abbreviates: HL-60, Cell-MTS, class symbols A/B/C.
Where [11] appears, read: NCI-H460, Cell-MTS, class symbols A/B/C.

Each structure is given as a SMILES string. pIC50: −log10 of the molar value.

As usually defined, the pIC50 is −log10 of the IC50, conventionally taken in molar units. Lower therefore signals a high IC50. On to `Cn1cc(-c2cc(S(C)(=O)=O)ccc2OCC2CC2)c2cc(Cl)oc2c1=O` [Example 260, 2-chloro-4-[2-(cyclopropylmethoxy)-5-methylsulfonylphenyl]-6-methylfuro[2,3-c]pyridin-7-one], for which the negative-log IC50 (pIC50) against BRD4(BD1) (setting [4]) is greater than 6.30; in assay [1] (Raji, Cell-MTS proliferation), greater than 6.30; in assay [2] (HL-60, Cell-MTS proliferation) it was greater than 6.30; in assay [3] (setting [5]), 5.30 to 6.30.
In the case of `Cc1cc(-c2cc(S(C)(=O)=O)ccc2OCC2CC2)cn(CC(C)C)c1=O` [Example 243, 5-[2-(cyclopropylmethoxy)-5-methylsulfonylphenyl]-3-methyl-1-(2-methylpropyl)pyridin-2-one], the pIC50 against BRD4(BD1) (setting [4]) is 5.30 to 6.30; in assay [1] (Raji, Cell-MTS proliferation) it was less than 5.30; in assay [2] (HL-60, Cell-MTS proliferation) it was 5.30 to 6.30; in assay [3] (setting [5]), less than 5.30.
As for `Cn1cc(-c2cc(NS(C)(=O)=O)ccc2Oc2ccc(F)cc2F)cc(C2CC2)c1=O` [Example 279, N-[3-(5-cyclopropyl-1-methyl-6-oxopyridin-3-yl)-4-(2,4-difluorophenoxy)phenyl]methanesulfonamide], the pIC50 on BRD4(BD1) (setting [4]) was greater than 6.30; in assay [1] (Raji, Cell-MTS proliferation), greater than 6.30; in assay [2] (HL-60, Cell-MTS proliferation) it was greater than 6.30; in assay [3] (setting [5]), less than 5.30.
As for `CCS(=O)(=O)c1ccc(NCC2CC2)c(-c2cc(C)c(=O)n(C)c2)c1` [Example 465, 5-[2-(cyclopropylmethylamino)-5-ethylsulfonylphenyl]-1,3-dimethylpyridin-2-one], the negative-log IC50 (pIC50) was greater than 6.30 against BRD4(BD1) (setting [4]), greater than 6.30 in assay [1] (setting [6]), greater than 6.30 in assay [2] (setting [7]) and less than 5.30 in assay [3] (setting [8]).
Take `Cn1cc(-c2cc(S(C)(=O)=O)ccc2O[C@H]2CC[C@H](O)CC2)c2cc(F)ccc2c1=O` [Example 186, 6-fluoro-4-[2-(trans-4-hydroxycyclohexyl)oxy-5-methylsulfonylphenyl]-2-methylisoquinolin-1-one]: the pIC50 was greater than 6.30 at BRD4(BD1) (setting [4]); greater than 6.30 in assay [1] (Raji, Cell-MTS proliferation); greater than 6.30 in assay [2] (HL-60, Cell-MTS proliferation); less than 5.30 in assay [3] (setting [5]).
With `Cn1cc(-c2ccc3c(=O)n(C)cc(-c4nc(NS(C)(=O)=O)ncc4OCC4CC4)c3c2)cn1` [Example 154, N-[5-(cyclopropylmethoxy)-4-[2-methyl-6-(1-methylpyrazol-4-yl)-1-oxoisoquinolin-4-yl]pyrimidin-2-yl]methanesulfonamide], the pIC50 was greater than 6.30 against BRD4(BD1) (setting [4]); greater than 6.30 in assay [1] (Raji, Cell-MTS proliferation); greater than 6.30 in assay [2] (HL-60, Cell-MTS proliferation); less than 5.30 in assay [3] (setting [5]).
On to `CCS(=O)(=O)c1ccc(OCC2CC2)c(-c2cn(C)c(=O)c3oc(C)cc23)c1` [Example 270, 4-[2-(cyclopropylmethoxy)-5-ethylsulfonylphenyl]-2,6-dimethylfuro[2,3-c]pyridine-7-one], for which the pIC50 is greater than 6.30 on BRD4(BD1) (setting [4]); greater than 6.30 in assay [1] (Raji, Cell-MTS proliferation); greater than 6.30 in assay [2] (HL-60, Cell-MTS proliferation); 5.30 to 6.30 in assay [3] (setting [5]).
Regarding `Cc1cc(-c2nc(CS(C)(=O)=O)ncc2OCC2CC2)cn(C)c1=O` [Example 144, 5-[5-(cyclopropylmethoxy)-2-(methylsulfonylmethyl)pyrimidin-4-yl]-1,3-dimethylpyridin-2-one], the pIC50 on BRD4(BD1) (setting [4]) was greater than 6.30; in assay [1] (Raji, Cell-MTS proliferation) it was less than 5.30; in assay [2] (HL-60, Cell-MTS proliferation), 5.30 to 6.30; in assay [3] (setting [5]) it was less than 5.30.
As for `Cn1cc(-c2cc(S(C)(=O)=O)ccc2NCC2CC2)c2c(c1=O)CCCC2` [Example 223, 4-[2-(cyclopropylmethylamino)-5-methylsulfonylphenyl]-2-methyl-5,6,7,8-tetrahydroisoquinolin-1-one], the pIC50 was greater than 6.30 against BRD4(BD1) (setting [4]); 5.30 to 6.30 in assay [1] (Raji, Cell-MTS proliferation); greater than 6.30 in assay [2] (HL-60, Cell-MTS proliferation); less than 5.30 in assay [3] (setting [5]).
For `CCS(=O)(=O)Nc1ccc(Oc2ccc(F)cc2F)c(-c2cc(N)c(=O)n(C)c2)c1` [Example 115, N-[3-(5-amino-1-methyl-6-oxopyridin-3-yl)-4-(2,4-difluorophenoxy)phenyl]ethanesulfonamide], the negative logarithm of the IC50 (pIC50) against BRD4(BD1) (class symbols A/B/C) is greater than 6.30; in assay [1] (setting [9]), greater than 6.30; in assay [2] (setting [10]), greater than 6.30; in assay [3] (setting [11]), less than 5.30.
`CCS(=O)(=O)c1ccc(OCC2CC2)c(-c2cc(C)c(=O)n(C)c2)c1` [Example 450, 5-[2-(cyclopropylmethoxy)-5-ethylsulfonylphenyl]-1,3-dimethylpyridin-2-one]: the pIC50 was greater than 6.30 at BRD4(BD1) (setting [4]), greater than 6.30 in assay [1] (setting [6]), greater than 6.30 in assay [2] (setting [7]) and less than 5.30 in assay [3] (setting [8]).
As for `CCS(=O)(=O)Nc1ccc(Oc2ccc(F)cc2F)c(-c2cn(C)c(=O)c3nncn23)c1` [Example 236, N-[4-(2,4-difluorophenoxy)-3-(7-methyl-8-oxo-[1,2,4]triazolo[4,3-a]pyrazin-5-yl)phenyl]ethanesulfonamide], the pIC50 at BRD4(BD1) (setting [4]) is greater than 6.30; in assay [1] (Raji, Cell-MTS proliferation), less than 5.30; in assay [2] (HL-60, Cell-MTS proliferation), 5.30 to 6.30; in assay [3] (setting [5]), less than 5.30.
In the case of `CCS(=O)(=O)Nc1ccnc(-c2cn(C)c(=O)c3ccc(-c4cnn(C)c4)cc23)c1` [Example 213, N-[2-[2-methyl-6-(1-methylpyrazol-4-yl)-1-oxoisoquinolin-4-yl]pyridin-4-yl]ethanesulfonamide], the pIC50 at BRD4(BD1) (setting [4]) is greater than 6.30; in assay [1] (Raji, Cell-MTS proliferation) it was 5.30 to 6.30; in assay [2] (HL-60, Cell-MTS proliferation), 5.30 to 6.30; in assay [3] (setting [5]), less than 5.30.
As to `CCS(=O)(=O)c1ccc(NCC2CC2)c(-c2cn(C)c(=O)c3ccccc23)c1` [Example 193, 4-[2-(cyclopropylmethylamino)-5-ethylsulfonylphenyl]-2-methylisoquinolin-1-one], the negative-log IC50 (pIC50) at BRD4(BD1) (setting [4]) was greater than 6.30; in assay [1] (Raji, Cell-MTS proliferation), greater than 6.30; in assay [2] (HL-60, Cell-MTS proliferation), greater than 6.30; in assay [3] (setting [5]) it was less than 5.30.
For the molecule `CC(=O)Nc1ccc(S(C)(=O)=O)cc1-c1cn(C)c(=O)c2ccccc12` [Example 222, N-[2-(2-methyl-1-oxoisoquinolin-4-yl)-4-methylsulfonylphenyl]acetamide], the pIC50 is less than 5.30 against BRD4(BD1) (setting [4]); less than 5.30 in assay [1] (Raji, Cell-MTS proliferation); less than 5.30 in assay [2] (HL-60, Cell-MTS proliferation); less than 5.30 in assay [3] (setting [5]).
Take `Cn1cc(-c2cc(S(C)(=O)=O)ccc2OCC2CC2)n2cnnc2c1=O` [Example 235, 5-[2-(cyclopropylmethoxy)-5-methylsulfonylphenyl]-7-methyl-[1,2,4]triazolo[4,3-a]pyrazin-8-one]: the pIC50 against BRD4(BD1) (setting [4]) was less than 5.30; in assay [1] (Raji, Cell-MTS proliferation), less than 5.30; in assay [2] (HL-60, Cell-MTS proliferation), less than 5.30; in assay [3] (setting [5]), less than 5.30.
Consider `CCS(=O)(=O)c1ccc(OCC2CC2)c(-c2cn(C)c(=O)cc2C)c1` [Example 466, 5-[2-(cyclopropylmethoxy)-5-ethylsulfonylphenyl]-1,4-dimethylpyridin-2-one], for which the negative logarithm of the IC50 (pIC50) against BRD4(BD1) (setting [4]) is greater than 6.30; in assay [1] (setting [6]), greater than 6.30; in assay [2] (setting [7]) it was greater than 6.30; in assay [3] (setting [8]) it was less than 5.30.
Consider `Cn1cc(-c2cc(S(C)(=O)=O)ccc2N[C@H]2CC[C@H](O)CC2)c2ccccc2c1=O` [Example 192, 4-[2-[(trans-4-hydroxycyclohexyl)amino]-5-methylsulfonylphenyl]-2-methylisoquinolin-1-one], for which the negative logarithm of the IC50 (pIC50) at BRD4(BD1) (setting [4]) was greater than 6.30; in assay [1] (Raji, Cell-MTS proliferation) it was greater than 6.30; in assay [2] (HL-60, Cell-MTS proliferation) it was greater than 6.30; in assay [3] (setting [5]), less than 5.30.
Regarding `CCS(=O)(=O)Nc1ccc(Cl)c(-c2cn(C)c(=O)c3ccc(F)cc23)c1` [Example 50, N-[4-chloro-3-(6-fluoro-2-methyl-1-oxoisoquinolin-4-yl)phenyl] ethanesulfonamide], the negative logarithm of the IC50 (pIC50) against BRD4(BD1) (class symbols A/B/C) was greater than 6.30; in assay [1] (setting [9]), 5.30 to 6.30; in assay [2] (setting [10]) it was greater than 6.30; in assay [3] (setting [11]), 5.30 to 6.30.
Turning to `Cc1cc(-c2cc(S(C)(=O)=O)ccc2OCC2CC2)cn(C)c1=O` [Example 476, 5-[2-(cyclopropylmethoxy)-5-methylsulfonylphenyl]-1,3-dimethylpyridin-2-one], the pIC50 was greater than 6.30 against BRD4(BD1) (setting [4]), 5.30 to 6.30 in assay [1] (setting [6]), greater than 6.30 in assay [2] (setting [7]) and less than 5.30 in assay [3] (setting [8]).
Consider `Cc1cc(-c2cn(CS(C)(=O)=O)c(=O)cc2Oc2ccc(F)cc2F)cn(C)c1=O` [Example 385, 5-[4-(2,4-difluorophenoxy)-1-(methylsulfonylmethyl)-6-oxopyridin-3-yl]-1,3-dimethylpyridin-2-one], for which the negative logarithm of the IC50 (pIC50) against BRD4(BD1) (setting [4]) was greater than 6.30; in assay [1] (setting [6]), greater than 6.30; in assay [2] (setting [7]) it was greater than 6.30; in assay [3] (setting [8]) it was less than 5.30.
Consider `Cn1cc(-c2cc(S(C)(=O)=O)ccc2O[C@H]2CC[C@H](O)CC2)c2ccccc2c1=O` [Example 180, 4-[2-(trans-4-hydroxycyclohexyl)oxy-5-methylsulfonylphenyl]-2-methylisoquinolin-1-one], for which the pIC50 on BRD4(BD1) (setting [4]) is greater than 6.30; in assay [1] (Raji, Cell-MTS proliferation) it was greater than 6.30; in assay [2] (HL-60, Cell-MTS proliferation) it was greater than 6.30; in assay [3] (setting [5]) it was less than 5.30.
`CCS(=O)(=O)Nc1ccc(Oc2ccc(F)cc2F)c(-c2cn(C)c(=O)cc2F)c1` [Example 139, N-[4-(2,4-difluorophenoxy)-3-(4-fluoro-1-methyl-6-oxopyridin-3-yl)phenyl]ethanesulfonamide]: the pIC50 at BRD4(BD1) (class symbols A/B/C) was greater than 6.30; in assay [1] (setting [9]), greater than 6.30; in assay [2] (setting [10]) it was greater than 6.30; in assay [3] (setting [11]) it was less than 5.30.
